Laboratory results published in patent publication US20180000952A1, “ENZYME AND RECEPTOR MODULATION” (GlaxoSmithKline Intellectual Property Development Limited, priority 2005, published 2018).
Where two headings read alike, the source gives them in different places. Each block holds one compound with its values, some of them ahead of it.

Legend:
HCT 116 cells = experiment: Cell proliferation inhibition assay (WST-1), HCT116; type: cell-based; settings: for Ratio IC50 Cell/enzyme (HCT116), Table 2: HCT116 cell IC50 / DHFR enzyme IC50
Experimental: (§1) Following 24 h of growth cells were treated with compound. Plates were then re-incubated for a further 72-96 h before a WST-1 cell viability assay was conducted according to the suppliers (Roche Applied Science) instructions
(§2) Data were expressed as a percentage inhibition of the control, measured in the absence of inhibitor, as follows;—
(§3) where S^l is the signal in the presence of inhibitor and S^o is the signal in the presence of DMSO.
(§4) Dose response curves were generated from 8 concentrations (top final concentration 10 μM, with 3-fold dilutions), using 6 replicates.

recombinant human DHFR = biological target: T1, recombinant human DHFR (Homo sapiens, UniProt P00374); experiment: Dihydrofolate reductase (DHFR) inhibitory activity assay; type: biochemical
T1 construct: purchased Sigma CS0340
T1 sequence (P00374 1-187): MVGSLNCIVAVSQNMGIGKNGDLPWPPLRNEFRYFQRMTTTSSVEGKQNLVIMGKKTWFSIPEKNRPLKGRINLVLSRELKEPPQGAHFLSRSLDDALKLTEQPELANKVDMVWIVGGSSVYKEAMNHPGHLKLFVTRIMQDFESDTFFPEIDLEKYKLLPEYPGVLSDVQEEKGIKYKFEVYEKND
Experimental: The ability of compounds to inhibit DHFR activity was measured in an assay based on the ability of DHFR to catalyse the reversible NADPH-dependent reduction of dihydrofolic acid to tetrahydrofolic acid using a Sigma kit (Catalogue number CS0340). This uses proprietary assay buffer and recombinant human DHFR at 7.5×10^−4 Unit per reaction, NADPH at 60 μM and dihydrofolic acid at 50 μM. The reaction was followed by monitoring the decrease in absorbance at 340 nm, for a 2 minute period, at room temperature, and the enzyme activity was calculated as the rate of decrease in absorbance. Enzyme activity, in the presence of inhibitor, was expressed as a percentage of inhibitor-free activity and the inhibitor IC50 was determined from a sigmoidal dose response curve using XIfit software (% activity against log concentration of compound). Each sample was run in triplicate and each dose response curve was composed of 10 dilutions of the inhibitor.

U937 cells = experiment: Cell proliferation inhibition assay (WST-1), U937; type: cell-based; settings: for Ratio IC50 cell/enzyme (Aurora kinase): U937 cell IC50 / Aurora kinase A IC50; for selectivity between a monocytic and non-monocytic cell line (cell proliferation): U937 versus HCT116
Experimental: as §1, §2, §3, §4

[1] = test system: U937 cell extract (esterase activity); experiment: Broken cell carboxylesterase assay, U937 cell extract; type: in vitro ADME; settings: U937 versus HCT116 broken cell assay
Experimental: U937 or HCT 116 tumour cells (˜10^9) were washed in 4 volumes of Dulbeccos PBS (˜1 litre) and pelleted at 525 g for 10 min at 4° C. This was repeated twice and the final cell pellet was resuspended in 35 ml of cold homogenising buffer (Trizma 10 mM, NaCl 130 mM, CaCl2 0.5 mM pH 7.0 at 25° C.). Homogenates were prepared by nitrogen cavitation (700 psi for […] at 4° C.). The homogenate was kept on ice and supplemented with a cocktail of Inhibitors at final concentrations of: • Leupeptin 1 μM • Aprotinin 0.1 μM • E64 8 μM • Pepstatin 1.5 μM • Bestatin 162 μM • Chymostatin 33 μM
After clarification of the cell homogenate by centrifugation at 525 g for 10 min, the resulting supernatant was used as a source of esterase activity and was stored at −80° C. until required.
Hydrolysis of esters to the corresponding carboxylic acids can be measured using the cell extract, prepared as above. To this effect cell extract (˜30 μg/total assay volume of 0.5 ml) was incubated at 37° C. in a Tris-HCl 25 mM, 125 mM NaCl buffer, pH 7.5 at 25° C. At zero time the ester (substrate) was then added at a final concentration of 2.5 μM and the samples were incubated at 37° C. for the appropriate time (usually 0 or 80 min). […] After centrifugation at 12000 g for 5 min, samples were analysed for the ester and its corresponding carboxylic acid at room temperature by LCMS (Sciex API 3000, HP1100 binary pump, CTC PAL). […]

[2] = test system: TNFα production in human whole blood; experiment: LPS-stimulation of human whole blood, TNF-α ELISA; type: cell-based; settings: for Ratio IC50 WB/enzyme (PI 3-Kinase): whole blood IC50 / PI3-Kinase IC50; for Ratio IC50 WB/enzyme (P38 MAP kinase): whole blood IC50 / P38 MAP kinase IC50
Experimental: Whole blood was taken by venous puncture using heparinised vacutainers (Becton Dickinson) and diluted in an equal volume of RPMI1640 tissue culture media. 100 μl was plated in V-bottomed 96 well tissue culture plates. Inhibitor was added in 100 μl of RPMI1640 media, and 2 h later the blood was stimulated with LPS (E coli strain 005:B5, Sigma) at a final concentration of 100 ng/ml and incubated at 37° C. in 5% CO2 for 6 h. TNF-α levels were measured from cell-free supernatants by sandwich ELISA (R&D Systems #QTA00B).

[3] = compound as shown (ester or unmodified modulator, or named acid), read-out: IC50 nM enzyme (DHFR)
[4] = enzyme IC50 for the acid resulting from cleavage of the ester shown, read-out: IC50 nM enzyme (acid), figures in brackets

IC50 (recombinant human DHFR; [3]): 1700 nM
Structure (SMILES): Cc1c(CNc2ccc(C(=O)N[C@@H](CC(C)C)C(=O)OC3CCCC3)cc2)cnc2nc(N)nc(N)c12 [Compound (6), (S)-2-{4-[(2,4-Diamino-5-methyl-pyrido[2,3-d]pyrimidin-6-ylmethyl)-amino]-benzoylamino}-4-methyl-pentanoic acid cyclopentyl ester]
fold more potent in the HCT116 than the unmodified analogue (2 G=N) (HCT 116 cells; HCT116, versus (2 G=N)): 15 fold | fold more potent in U937 cells than the unmodified analogue (2 G=N) (U937 cells; U937 cells, versus (2 G=N)): 100 fold

Structure (SMILES): COc1cc(NCc2cnc3nc(N)nc(N)c3c2C)cc(OC)c1OC [drawing 10]
Ratio IC50 Cell/enzyme (HCT116), Table 2 (HCT 116 cells): 170 | Ratio IC50 cell/enzyme (U937), Table 2 (U937 cells; U937 cell IC50 / DHFR enzyme IC50): 220

IC50 (recombinant human DHFR; [3]): 1030 nM | IC50 (recombinant human DHFR; [4]): 25 nM
Structure (SMILES): Cc1c(CNc2ccc(OCCC(NC3CCCCC3)C(=O)OC3CCCC3)cc2)cnc2nc(N)nc(N)c12 (stereo not drawn)
Ratio IC50 Cell/enzyme (HCT116), Table 2 (HCT 116 cells): 66

Structure (SMILES): COc1cc2c(Oc3ccc(NC(=O)c4ccccc4)cc3)ccnc2cc1OCC[C@H](N)C(=O)OC1CCCC1 [Compound (12), (S)-2-amino-4-[4-(4-benzoylamino-phenoxy)-6-methoxy-quinolin-7-yloxy]-butyric acid cyclopentyl ester]
Ratio IC50 cell/enzyme (Aurora kinase) (U937 cells): 0.0015

Structure (SMILES): COc1cc2nccc(Oc3ccc(NC(=O)c4ccccc4)cc3)c2cc1OC [Compound (11), N-{4-(7-methoxy-6-methoxy-quinoline-4-yloxy)-phenyl}-benzamide, reference compound]
Ratio IC50 cell/enzyme (Aurora kinase) (U937 cells): 1.3

Structure (SMILES): Cc1c(CNc2ccc(CN[C@@H](CC(C)C)C(=O)OC3CCCC3)cc2)cnc2nc(N)nc(N)c12 [Compound (5), (S)-2-{4-[(2,4-Diamino-5-methyl-pyrido[2,3-d]pyrimidin-6-ylmethyl)-amino]-benzylamino}-4-methyl-pentanoic acid cyclopentyl ester]
cleavage of the ester in monocytic versus non-monocytic cell lines [1]: selective cleavage in monocytic but not non-monocytic cell lines | selectivity between a monocytic and non-monocytic cell line (cell proliferation) (U937 cells): significantly more anti-proliferative in monocytic cell lines

IC50 (recombinant human DHFR; [3]): 2700 nM | IC50 (recombinant human DHFR; [4]): 11 nM
Structure (SMILES): Cc1c(CNc2ccc(OCCC(N)C(=O)OC3CCCC3)cc2)cnc2nc(N)nc(N)c12 (stereo not drawn)
Ratio IC50 Cell/enzyme (HCT116), Table 2 (HCT 116 cells): 14

Structure (SMILES): Cc1nc(NC(=O)CC[C@H](N)C(=O)OC(C)(C)C)sc1-c1ccc(Cl)c(S(C)(=O)=O)c1 [Compound (23), (S)-2-Amino-4-[5-(4-chloro-3-methanesulfonyl-phenyl)-4-methyl-thiazol-2-ylcarbamoyl]-butyric acid tert-butyl ester]
Ratio IC50 WB/enzyme (PI 3-Kinase) [2]: 0.75

IC50 (recombinant human DHFR; [3]): 10 nM
Structure (SMILES): Cc1c(CNc2ccc(C(=O)N[C@@H](CC(C)C)C(=O)O)cc2)cnc2nc(N)nc(N)c12 [Compound (19), (S)-2-(4-((2,4-diamino-5-methylpyrido[2,3-d]pyrimidin-6-yl)methylamino)benzamido)-4-methylpentanoic acid]

Structure (SMILES): Nc1c(C(=O)c2ccc(F)cc2F)ccc(=O)n1-c1c(F)cccc1F [Compound (15), 6-Amino-5-(2,4-difluoro-benzoyl)-1-(2,6-difluoro-phenyl)-1H-pyridin-2-one, reference compound]
Ratio IC50 WB/enzyme (P38 MAP kinase) [2]: 6

IC50 (recombinant human DHFR; [3]): 10 nM
Structure (SMILES): COc1cc(NCc2cnc3nc(N)nc(N)c3c2C)cc(OC)c1OC [Compound (2 G=N), 5-Methyl-6-((3,4,5-trimethoxyphenylamino)methyl)pyrido[2,3-d]pyrimidine-2,4-diamine, reference compound]

IC50 (recombinant human DHFR; [3]): 4000 nM | IC50 (recombinant human DHFR; [4]): 10 nM
Structure (SMILES): Cc1c(CNc2ccc(CNC(CC(C)C)C(=O)OC3CCCC3)cc2)cnc2nc(N)nc(N)c12 (stereo not drawn)
Ratio IC50 Cell/enzyme (HCT116), Table 2 (HCT 116 cells): 17

Structure (SMILES): Cc1c(CNc2ccc(OCC[C@H](NC3CCCCC3)C(=O)OC3CCCC3)cc2)cnc2nc(N)nc(N)c12 [Compound (4), (S)-2-Cyclohexylamino-4-{4-[(2,4-diamino-5-methyl-pyrido[2,3-d]pyrimidin-6-ylmethyl)-amino]-phenoxy}-butyric acid cyclopentyl ester]
cleavage of the ester in monocytic versus non-monocytic cell lines [1]: selective cleavage in monocytic but not non-monocytic cell lines | selectivity between a monocytic and non-monocytic cell line (cell proliferation) (U937 cells): significantly more anti-proliferative in monocytic cell lines

Structure (SMILES): CC(=O)Nc1nc(C)c(-c2ccc(Cl)c(S(C)(=O)=O)c2)s1 [Compound (20), N-[5-(4-Chloro-3-methanesulfonyl-phenyl)-4-methyl-thiazol-2-yl]-acetamide, reference compound]
Ratio IC50 WB/enzyme (PI 3-Kinase) [2]: 17

Structure (SMILES): Cc1nc(NC(=O)CC[C@H](N)C(=O)OC2CCCC2)sc1-c1ccc(Cl)c(S(C)(=O)=O)c1 [Compound (21), (S)-2-Amino-4-[5-(4-chloro-3-methanesulfonyl-phenyl)-4-methyl-thiazol-2-ylcarbamoyl]-butyric acid cyclopentyl ester]
Ratio IC50 WB/enzyme (PI 3-Kinase) [2]: 0.15

Structure (SMILES): CC(C)(C)OC(=O)[C@@H](N)CCOc1cc(F)c(-n2c(N)c(C(=O)c3ccc(F)cc3F)ccc2=O)c(F)c1 [Compound (18), (S)-2-Amino-4-{4-[6-amino-5-(2,4-difluoro-benzoyl)-2-oxo-2H-pyridin-1-yl]-3,5-difluoro-phenoxy}-butyric acid tert-butyl ester]
Ratio IC50 WB/enzyme (P38 MAP kinase) [2]: 18

Structure (SMILES): COc1cc2c(Oc3ccc(NC(=O)c4ccccc4)cc3)ccnc2cc1OCC[C@H](N)C(=O)OC(C)(C)C [Compound (14), (S)-2-Amino-4-[4-(4-benzoylamino-phenoxy)-6-methoxy-quinolin-7-yloxy]-butyric acid tert-butyl ester]
Ratio IC50 cell/enzyme (Aurora kinase) (U937 cells): 0.025

IC50 (recombinant human DHFR; [3]): 1700 nM | IC50 (recombinant human DHFR; [4]): 8 nM
Structure (SMILES): Cc1c(CNc2ccc(C(=O)NC(CC(C)C)C(=O)OC3CCCC3)cc2)cnc2nc(N)nc(N)c12 (stereo not drawn)
